US20260042772A1, “FURO PYRIMIDINE DERIVATES” (Merck Patent GmbH, priority 2022, published 2026)

Experiments:
[1] = tested on: CQC sensitive strain (NF54) of P. falciparum; experiment: In vitro antiplasmodial activity, Assay B (as described by Vennerstrom et al. 2004); assay type: cell-based; conditions: Plasmodium falciparum; NF54, Vennerstrom et al. method
Protocol: Compounds were screened against CQC sensitive strain (NF54) of P. falciparum in vitro as described by Vennerstrom et al. (2004). A full dose-response were performed starting at a concentration of 3000 nM, which is then serially diluted 2-fold in complete medium to give 10 concentrations; with the lowest concentration being approximately 6 nM. The same dilution techniques were used for all samples. References were tested at a starting concentration of 1000 ng/mL. The highest concentration of solvent to which the parasites were exposed has no measurable effect on the parasite viability (data not shown).

[2] = tested on: chloroquine sensitive (CQS) strain (NF54) of P. falciparum; experiment: In vitro antiplasmodial activity, Assay A (parasite lactate dehydrogenase assay); assay type: cell-based; conditions: Plasmodium falciparum
Protocol: Test samples were screened for in vitro antiplasmodial activity against a chloroquine sensitive (CQS) strain (NF54) of the malaria parasite P. falciparum. Continuous in vitro cultures of asexual erythrocyte stages of P. falciparum were maintained using a modified version of the method of Trager and Jensen (1976).1 Quantitative assessment of antiplasmodial activity in vitro was determined via the parasite lactate dehydrogenase assay using a modified method described by Makler (1993). The test samples were tested in triplicate on two separate occasions. Further dilutions were prepared in complete medium on the day of the experiment. Samples were tested as a suspension if not completely dissolved. Chloroquine and artesunate were used as the reference drugs. A full dose-response were performed starting at a concentration of 3000 nM, which is then serially diluted 2-fold in complete medium to give 10 concentrations; with the lowest concentration being approximately 6 nM. The same dilution techniques were used for all samples. References were tested at a starting concentration of 1000 ng/mL. The highest concentration of solvent to which the parasites were exposed has no measurable effect on the parasite viability (data not shown).

IC50 [1] [nM] | IC50 [2] [nM] | SMILES
< 15 | 15 to 50 | C[C@H]1COCCN1C(=O)c1ccc(-c2cc3ncnc(-c4ccnc(C(C)(C)O)c4)c3o2)cc1 [Compound D159, (S)-(4-(4-(2-(2-hydroxypropan-2-yl)pyridin-4-yl)furo[3,2-d]pyrimidin-6-yl)phenyl)(3-methylmorpholino) methanone]
< 15 | 15 to 50 | C[C@@H]1COCCN1C(=O)c1ccc(-c2cc3ncnc(-c4ccnc(C(C)(C)O)c4)c3o2)cc1 [Compound D160, (R)-(4-(4-(2-(2-hydroxypropan-2-yl)pyridin-4-yl)furo[3,2-d]pyrimidin-6-yl)phenyl)(3-methylmorpholino) methanone]
< 15 | < 15 | CC1CN(C(=O)c2ccc(-c3cc4ncnc(-c5ccnc(C(C)(C)O)c5)c4o3)cc2)CC(C)O1 (stereo not drawn) [Compound D161, (2,6-dimethylmorpholino)(4-(4-(2-(2-hydroxypropan-2-yl)pyridin-4-yl)furo[3,2-d]pyrimidin-6-yl)phenyl)methanone]
< 15 | < 15 | CC(C)(O)c1cccc(-c2ncnc3cc(-c4ccc(C(=O)N5C[C@H]6C[C@@H]5CO6)cc4)oc23)c1 [Compound D172, ((1R,4R)-2-oxa-5-azabicyclo[2.2.1]heptan-5-yl)(4-(4-(3-(2-hydroxypropan-2-yl)phenyl)furo[3,2-d]pyrimidin-6-yl)phenyl)methanone]
< 15 | < 15 | CC(C)(O)c1cccc(-c2ncnc3cc(-c4ccc(C(=O)N5C[C@@H]6C[C@H]5CO6)cc4)oc23)c1 [Compound D174, ((1S,4S)-2-oxa-5-azabicyclo[2.2.1]heptan-5-yl)(4-(4-(3-(2-hydroxypropan-2-yl)phenyl)furo[3,2-d]pyrimidin-6-yl)phenyl)methanone]
< 15 | < 15 | CC(C)(O)c1cc(-c2ncnc3cc(-c4ccc(C(=O)N5C[C@@H]6C[C@H]5CO6)cc4)oc23)ccn1 [Compound D176, ((1S,4S)-2-oxa-5-azabicyclo[2.2.1]heptan-5-yl)(4-(4-(2-(2-hydroxypropan-2-yl)pyridin-4-yl)furo[3,2-d]pyrimidin-6-yl)phenyl)methanone]
< 15 | < 15 | CC(C)(O)c1cc(-c2ncnc3cc(-c4ccc(C(=O)N5C[C@H]6C[C@@H]5CO6)cc4)oc23)ccn1 [Compound D177, ((1R,4R)-2-oxa-5-azabicyclo[2.2.1]heptan-5-yl)(4-(4-(2-(2-hydroxypropan-2-yl)pyridin-4-yl)furo[3,2-d]pyrimidin-6-yl)phenyl)methanone]
< 15 | < 15 | C[C@H]1CN(C(=O)c2ccc(-c3cc4ncnc(-c5cccc(C(C)(C)O)c5F)c4o3)cc2)CCO1 [Compound D191, (S)-(4-(4-(2-fluoro-3-(2-hydroxypropan-2-yl)phenyl)furo[3,2-d]pyrimidin-6-yl)phenyl)(2-methylmorpholino) methanone]
< 15 | < 15 | C[C@@H]1CN(C(=O)c2ccc(-c3cc4ncnc(-c5cccc(C(C)(C)O)c5F)c4o3)cc2)CCO1 [Compound D192, (R)-(4-(4-(2-fluoro-3-(2-hydroxypropan-2-yl)phenyl)furo[3,2-d]pyrimidin-6-yl)phenyl)(2-methylmorpholino) methanone]
< 15 | < 15 | C[C@@H]1CN(C(=O)c2ccc(-c3cc4ncnc(-c5cccc(C(C)(C)O)c5F)c4o3)cc2)C[C@@H](C)O1 [Compound D193, ((2R,6R)-2,6-dimethylmorpholino)(4-(4-(2-fluoro-3-(2-hydroxypropan-2-yl)phenyl)furo[3,2-d]pyrimidin-6-yl)phenyl)methanone]
< 15 | < 15 | C[C@H]1CN(C(=O)c2ccc(-c3cc4ncnc(-c5cccc(C(C)(C)O)c5F)c4o3)cc2)C[C@H](C)O1 [Compound D194, ((2S,6S)-2,6-dimethylmorpholino)(4-(4-(2-fluoro-3-(2-hydroxypropan-2-yl)phenyl)furo[3,2-d]pyrimidin-6-yl)phenyl)methanone]
< 15 | < 15 | C[C@H]1COCCN1C(=O)c1ccc(-c2cc3ncnc(-c4cccc(C(C)(C)O)c4F)c3o2)cc1 [Compound D195, (S)-(4-(4-(2-fluoro-3-(2-hydroxypropan-2-yl)phenyl)furo[3,2-d]pyrimidin-6-yl)phenyl)(3-methylmorpholino) methanone]
< 15 | < 15 | C[C@@H]1COCCN1C(=O)c1ccc(-c2cc3ncnc(-c4cccc(C(C)(C)O)c4F)c3o2)cc1 [Compound D196, (R)-(4-(4-(2-fluoro-3-(2-hydroxypropan-2-yl)phenyl)furo[3,2-d]pyrimidin-6-yl)phenyl)(3-methylmorpholino) methanone]
< 15 | < 15 | CC(C)(O)c1nccc(-c2ncnc3cc(-c4ccc(C(=O)N5CCOCC5)cc4)oc23)c1F [Compound D207, (4-(4-(3-fluoro-2-(2-hydroxypropan-2-yl)pyridin-4-yl)furo[3,2-d]pyrimidin-6-yl)phenyl)(morpholino) methanone]
< 15 | < 15 | CC(C)(O)c1nccc(-c2ncnc3cc(-c4ccc(C(=O)N5C[C@H]6C[C@@H]5CO6)cc4)oc23)c1F [Compound D208, ((1R,4R)-2-oxa-5-azabicyclo[2.2.1]heptan-5-yl)(4-(4-(3-fluoro-2-(2-hydroxypropan-2-yl)pyridin-4-yl)furo[3,2-d]pyrimidin-6-yl)phenyl)methanone]
> 50 | > 50 | CS(=O)(=O)c1ccc(-c2cc3ncnc(-c4ccnc(N5CC(O)C5)c4)c3o2)cc1 [Compound P1, 1-(4-(6-(4-(methylsulfonyl)phenyl)furo [3,2-d]pyrimidin-4-yl)pyridin-2-yl)azetidin-3-ol]
< 15 | > 50 | C[C@@H]1CN(C(=O)c2ccc(-c3cc4ncnc(-c5ccnc(C(C)(C)O)c5)c4o3)cc2)C[C@H](C)O1 [Compound P17, ((2S,6R)-2,6-dimethylmorpholino)(4-(4-(2-(2-hydroxypropan-2-yl)pyridin-4-yl)furo[3,2-d]pyrimidin-6-yl)phenyl)methanone]
< 15 | 15 to 50 | C[C@H]1CN(C(=O)c2ccc(-c3cc4ncnc(-c5ccnc(C(C)(C)O)c5)c4o3)cc2)CCO1 [Compound P18, (S)-(4-(4-(2-(2-hydroxypropan-2-yl)pyridin-4-yl)furo[3,2-d]pyrimidin-6-yl)phenyl)(2-methylmorpholino) methanone]
< 15 | < 15 | C[C@@H]1CN(C(=O)c2ccc(-c3cc4ncnc(-c5ccnc(C(C)(C)O)c5)c4o3)cc2)CCO1 [Compound P19, (R)-(4-(4-(2-(2-hydroxypropan-2-yl)pyridin-4-yl)furo[3,2-d]pyrimidin-6-yl)phenyl)(2-methylmorpholino) methanone]
< 15 | < 15 | C[C@@H]1CN(C(=O)c2ccc(-c3cc4ncnc(-c5cccc(C(C)(C)O)c5F)c4o3)cc2)C[C@H](C)O1 [Compound P20, ((2S,6R)-2,6-dimethylmorpholino)(4-(4-(2-fluoro-3-(2-hydroxypropan-2-yl)phenyl)furo[3,2-d]pyrimidin-6-yl)phenyl)methanone]
< 15 | < 15 | CC(C)(O)c1cccc(-c2ncnc3cc(-c4ccc(C(=O)N5C[C@H]6C[C@@H]5CO6)cc4)oc23)c1F [Compound P21, ((1R,4R)-2-oxa-5-azabicyclo[2.2.1]heptan-5-yl)(4-(4-(2-fluoro-3-(2-hydroxypropan-2-yl)phenyl)furo[3,2-d]pyrimidin-6-yl)phenyl)methanone]
> 50 | > 50 | CC(C)(O)c1cc(-c2ncnc3cc(-c4ccc(C5(C(=O)N6C[C@@H]7C[C@H]6CO7)CC5)cc4)oc23)ccn1 [Compound P23, ((1S,4S)-2-oxa-5-azabicyclo[2.2.1]heptan-5-yl)(1-(4-(4-(2-(2-hydroxypropan-2-yl)pyridin-4-yl)furo[3,2-d]pyrimidin-6-yl)phenyl)cyclopropyl) methanone]
> 50 | > 50 | CC(C)(O)c1cc(-c2ncnc3cc(-c4ccc(C5(C(=O)N6C[C@H]7C[C@@H]6CO7)CC5)cc4)oc23)ccn1 [Compound P24, ((1R,4R)-2-oxa-5-azabicyclo[2.2.1]heptan-5-yl)(1-(4-(4-(2-(2-hydroxypropan-2-yl)pyridin-4-yl)furo[3,2-d]pyrimidin-6-yl)phenyl)cyclopropyl) methanone]
– | > 50 | CC(C)(O)c1cc(-c2ncnc3cc(-c4ccc(C(=O)N5CCOCC5)cc4)oc23)ccc1F [Compound P32, (4-(4-(4-fluoro-3-(2-hydroxypropan-2-yl)phenyl)furo[3,2-d]pyrimidin-6-yl)phenyl)(morpholino) methanone]
– | 15 to 50 | CC(C)(O)c1cccc(-c2ncnc3cc(-c4ccc(S(N)(=O)=O)cc4)oc23)c1F [Compound P33, 4-(4-(2-fluoro-3-(2-hydroxypropan-2-yl)phenyl)furo[3,2-d]pyrimidin-6-yl)benzenesulfonamide]
